Source: patent US9382433B2, “Ketocoumarins as photoinitiators and photosensitizers in printing inks and coatings” (SUN CHEMICAL CORPORATION, priority 2012, dated 2016)

What was measured:
[1] = Cure index (set-off cure test, sum of DL values); settings: Offset Black Ink 1; ketocoumarin 5.10% in Inventive PI Blend 1; ~32 mJ per pass, 100 m/min; lower is superior cure
Description: Offset Black Ink 1—based on a urea-formaldehyde resin, trifunctional acrylate and approximately 13% carbon black pigment.
(§1) The inks were printed onto a carton board substrate (Incada Exel coated board from Iggesund) to a density of approximately 1.8-2.0 using an IGT C1 print proofer. These were cured at 100 m/min using a Primarc UV rig fitted with a single 300 W/inch medium pressure mercury lamp, operating at half power (˜32 mJ per pass). The number of passes required to cure was measured by a “set-off cure test” which is done by visually comparing the extent to which after each pass the ink has transferred to a piece of blank substrate under 10 tons pressure for 5 seconds. […] The amount of set-off is then measured using color computer software, which determines the average color density of the set-off ink compared to a blank piece of substrate. The amount of set-off is measured as the lightness “DL” of the blank substrate vs. the transferred ink film, measured using a Spectraflash 650 spectrophotometer. The DL value is measured for each pass of the ink underneath the curing lamp, using a fresh piece of substrate for each pass until the ink is deemed fully cured and there is no visible ink transfer. The cure index is calculated by adding the individual DL values and rounding the sum to the nearest whole number. For example, if 4 passes under the curing lamp was required to cure a given ink film, and the DL values for the first 3 passes were 8.89, 5.27, 2.15 respectively, then the sum of the figures would be 16.31, which would be rounded to a cure index of 16. Note that there is no DL value taken after the 4th pass, as the ink film was determined to be fully cured by the visual absence of ink transferred during the set-off cure test. […] The tables below show the results for the evaluations.

[2] = Cure index (set-off cure test, sum of DL values); settings: Offset Black Ink 2; ketocoumarin 5.10% in Inventive PI Blend 2; ~32 mJ per pass, 100 m/min; lower is superior cure
Source text: Offset Black Ink 2—based on a ketone functional resin, tri- and tetra-functional alkoxylated acrylates and approximately 14% carbon black pigment.
as §1

[3] = Cure index (set-off cure test, sum of DL values); settings: Offset Black Ink 3; ketocoumarin 6.000% in Inventive PI Blend 3; ~32 mJ per pass, 100 m/min; lower is superior cure
Source text: Offset Black Ink 3—based on a ketone functional resin, tri- and tetra-functional alkoxylated acrylates and approximately 14% carbon black pigment.
as §1

[4] = Solubility by visual inspection of ink and prints; format: physicochemical; set-up: key: Good=Soluble (no solid bits in the ink and good printability); OK=Partially insoluble (some solid bits in the ink and slightly poor printability); Poor=Very noticeable insolubility (very noticeable solid bits in the ink and poor printability); settings: visual inspection of inks and prints
Description: The solubility of the materials was assessed by visual inspection of the inks and from visual inspection of the prints. Insolubility is reported as follows: Good=Soluble (no solid bits in the ink and good printability); OK=Partially insoluble (some solid bits in the ink and slightly poor printability); Poor=Very noticeable insolubility (very noticeable solid bits in the ink and poor printability).

[5] = Cure index of ink-jet magenta inks; settings: ketocoumarin 6.167% in Inventive Ink-Jet PI Blend, 84 mJ per pass, 70 m/min, rounded to nearest 0.5
Description: Magenta ink-jet inks were prepared to assess the performance of the inventive ketocoumarin materials an ink-jet ink formulation. The magenta ink formulation is based on 17.5% of a magenta pigment concentrate and a blend of difunctional monomers which includes propoxylated neopentylglycol diacrylate, dipropyleneglycol diacrylate, tripropylene glycol diacrylate (all at approximately 15%) and 2-(2-Vinyloxyethoxy)ethyl acrylate (at approximately 20%).
The inks were printed onto white PE TopTrans top-coated label substrate using a No. 2 K-Bar (red). The No. 2 K-bar gives a film thickness of about 12 μm. The inks were cured at 70 m/min using a Primarc UV rig fitted with a single 300 W/inch medium pressure mercury lamp, operating at full power (84 mJ per pass). Cure index was determined using the same cure index test described above for the black offset inks.
The cure index results in Table 12 were determined using the same test method as described for the black offset inks in Tables 7-9 with one exception; in Table 12 the cure index figures were rounded to the nearest 0.5 rather than to the nearest whole number. It should be noted that the cure index numbers are a representation of cure at a relatively low UV lamp dose compared to that used in a commercial application. A commercial application would typically use higher UV lamp dosage and all of the above formulations would perform adequately under these conditions. The experiments have been set up to highlight differences in cure and therefore have been carried out at relatively low cure dose. In the above experiments an ink with a cure index of less than 4-5 would cure adequately using commercial lamp conditions. Inks with a cure index of much lower than 4-5 are, therefore, performing very well.

| SMILES | Cure index [1] | Cure index [2] | Cure index [3] | Solubility in Ink-Jet Magenta Ink [4] | Solubility in Offset Black Ink 1 [4] | Solubility in Offset Black Ink 2 [4] | Solubility in Offset Black Ink 3 [4] | Cure index [5] |
| --- | --- | --- | --- | --- | --- | --- | --- | --- |
| O=C(COc1ccc2cc(C(=O)c3ccccc3)c(=O)oc2c1)OCCOCCOCCOC(=O)COc1ccc2cc(C(=O)c3ccccc3)c(=O)oc2c1 [Inventive Example 11] | 53 | 23 | 42 | OK | OK | OK | OK | 1 |
| O=C(c1ccccc1)c1cc2ccccc2oc1=O [Comparative Example 1, reference compound] | 28 | 24 | 27 | Poor | Poor | Poor | Poor | 38 |
| CCC(COC(=O)COc1ccc2cc(C(=O)c3ccccc3)c(=O)oc2c1)(COC(=O)COc1ccc2cc(C(=O)c3ccccc3)c(=O)oc2c1)COC(=O)COc1ccc2cc(C(=O)c3ccccc3)c(=O)oc2c1 [Inventive Example 14] | 28 | 7 | 14 | Poor | OK | OK | OK | 1 |
| CCOC(=O)COc1ccc2cc(C(=O)c3ccccc3)c(=O)oc2c1 [Inventive Example 12] | 46 | 15 | 26 | Poor | OK | OK | OK | 3 |
| CCCCCCCCCCCCOC(=O)COc1ccc2cc(C(=O)c3ccccc3)c(=O)oc2c1 [Inventive Example 16] | 52 | 31 | 56 | Poor | OK | OK | OK | 5 |
| O=C(COc1ccc2cc(C(=O)c3ccccc3)c(=O)oc2c1)OCCOCCOC(=O)COc1ccc2cc(C(=O)c3ccccc3)c(=O)oc2c1 [Inventive Example 5] | – | – | – | Good | – | – | – | 9 |
| COc1ccc2cc(C(=O)c3ccccc3)c(=O)oc2c1 [Comparative Example 2, reference compound] | 52 | 13 | 33 | Poor | Poor | Poor | Poor | <1 |
